Literature values, collected in patent EP2179733A1, “PHARMACEUTICAL COMPOSITION COMBINING AN ANTIMICROBIAL AGENT AND A SELECTIVE ENKEPHALINASE ENZYME INHIBITOR, WHICH CAN BE USED TO CONTROL AND TREAT ACUTE BACTERIAL DIARRHOEA” (World Trade Import-Export, WTIE A.G., priority 2007, dated 2009).

Tests used:
plasmatic enkephalinase = target: T1, plasmatic enkephalinase (Homo sapiens, UniProt P08473)
T1 construct: from tissue; host or cells: plasma after oral administration of Racecadotril
T1 sequence (P08473 whole entry): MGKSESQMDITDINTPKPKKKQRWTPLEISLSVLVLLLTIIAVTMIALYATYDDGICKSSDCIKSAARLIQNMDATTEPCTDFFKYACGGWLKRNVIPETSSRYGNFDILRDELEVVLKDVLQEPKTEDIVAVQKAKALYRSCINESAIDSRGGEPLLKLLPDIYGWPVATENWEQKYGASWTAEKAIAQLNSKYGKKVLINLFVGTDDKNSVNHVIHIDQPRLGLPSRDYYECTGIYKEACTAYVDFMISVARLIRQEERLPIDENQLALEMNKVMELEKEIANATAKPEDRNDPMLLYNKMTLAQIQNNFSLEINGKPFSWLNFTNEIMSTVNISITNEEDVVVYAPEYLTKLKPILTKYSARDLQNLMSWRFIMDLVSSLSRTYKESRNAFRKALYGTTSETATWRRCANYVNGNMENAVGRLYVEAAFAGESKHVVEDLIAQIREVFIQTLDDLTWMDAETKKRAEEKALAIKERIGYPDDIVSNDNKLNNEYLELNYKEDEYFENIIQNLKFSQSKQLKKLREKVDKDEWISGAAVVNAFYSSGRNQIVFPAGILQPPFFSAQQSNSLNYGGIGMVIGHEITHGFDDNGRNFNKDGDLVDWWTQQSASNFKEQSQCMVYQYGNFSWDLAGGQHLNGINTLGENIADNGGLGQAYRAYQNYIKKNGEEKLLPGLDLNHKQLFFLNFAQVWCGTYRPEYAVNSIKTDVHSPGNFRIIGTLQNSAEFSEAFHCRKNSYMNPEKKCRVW

administered dose distributed in tissues (in vivo): 1%
mean life (in vivo): about 3 hours
time to maximum concentration from administration (oral administration): 60 min
bioavailability when administered with food (with food): not modified
duration of inhibiting effect over plasmatic enkephalinase (plasmatic enkephalinase; 1.5 mg/kg oral doses): about 8 hours
maximum enzymatic inhibition level (plasmatic enkephalinase; 1.5 mg/kg oral doses): about 90%
start of plasmatic enkephalinase inhibiting effect after administration (plasmatic enkephalinase; oral administration): 30 min
time to maximum activity (plasmatic enkephalinase; oral administration): 2 h
delay of maximum activity when administered with food (plasmatic enkephalinase; with food): about one and half
SMILES: CC(=O)SCC(Cc1ccccc1)C(=O)NCC(=O)OCc1ccccc1 (stereo not drawn) [Racecadotril]
